# Test results: ChEMBL document CHEMBL1147144, “Novel styrylpyridines as probes for SPECT imaging of amyloid plaques” (J Med Chem, 2007)
# Test system: Lung
# Experiment: Biodistribution in ICR mouse lung at 5 to 10 uCi, iv after 2 mins
# Assay type: ADME, organism-based
# Details: in vivo
row,Drug uptake [% ID/g],SMILES
1,7.43,CNc1ccc(/C=C/c2cnc(OCCO)c([125I])c2)cc1

# Test system: Thyroid gland
# Experiment: Biodistribution in ICR mouse thyroid at 5 to 10 uCi, iv after 1 hr
# Assay type: ADME, organism-based
# Details: in vivo
row,Drug uptake [% ID/g],SMILES
1,36.7,CNc1ccc(/C=C/c2cnc(OCCO)c([125I])c2)cc1

# Test system: Kidney
# Experiment: Biodistribution in ICR mouse kidney at 5 to 10 uCi, iv after 2 hrs
# Assay type: ADME, organism-based
# Details: in vivo
row,Drug uptake [% ID/g],SMILES
1,1.53,CNc1ccc(/C=C/c2cnc(OCCO)c([125I])c2)cc1

# Test system: Heart
# Experiment: Biodistribution in ICR mouse heart at 5 to 10 uCi, iv after 2 mins
# Assay type: ADME, organism-based
# Details: in vivo
row,Drug uptake [% ID/g],SMILES
1,7.16,CNc1ccc(/C=C/c2cnc(OCCO)c([125I])c2)cc1

# Test system: Heart
# Experiment: Biodistribution in ICR mouse heart at 5 to 10 uCi, iv after 1 hr
# Assay type: ADME, organism-based
# Details: in vivo
row,Drug uptake [% ID/g],SMILES
1,0.88,CNc1ccc(/C=C/c2cnc(OCCO)c([125I])c2)cc1

# Test system: Thyroid gland
# Experiment: Biodistribution in ICR mouse thyroid at 5 to 10 uCi, iv after 2 hrs
# Assay type: ADME, organism-based
# Details: in vivo
row,Drug uptake [% ID/g],SMILES
1,99.9,CNc1ccc(/C=C/c2cnc(OCCO)c([125I])c2)cc1

# Test system: Spleen
# Experiment: Biodistribution in ICR mouse spleen at 5 to 10 uCi, iv after 2 hrs
# Assay type: ADME, organism-based
# Details: in vivo
row,Drug uptake [% ID/g],SMILES
1,1.08,CNc1ccc(/C=C/c2cnc(OCCO)c([125I])c2)cc1

# Test system: Spleen
# Experiment: Biodistribution in ICR mouse spleen at 5 to 10 uCi, iv after 1 hr
# Assay type: ADME, organism-based
# Details: in vivo
row,Drug uptake [% ID/g],SMILES
1,0.87,CNc1ccc(/C=C/c2cnc(OCCO)c([125I])c2)cc1

# Test system: Liver
# Experiment: Biodistribution in ICR mouse liver at 5 to 10 uCi, iv after 2 mins
# Assay type: ADME, organism-based
# Details: in vivo
row,Drug uptake [% ID/g],SMILES
1,20.8,CNc1ccc(/C=C/c2cnc(OCCO)c([125I])c2)cc1

# Test system: Brain
# Experiment: Biodistribution in ICR mouse brain at 5 to 10 uCi, iv after 30 mins
# Assay type: ADME, organism-based
# Details: in vivo, 0.5 h
row,Drug uptake [% ID/g],SMILES
1,0.88,CNc1ccc(/C=C/c2cnc(OCCO)c([125I])c2)cc1

# Test system: Heart
# Experiment: Biodistribution in ICR mouse heart at 5 to 10 uCi, iv after 2 hrs
# Assay type: ADME, organism-based
# Details: in vivo
row,Drug uptake [% ID/g],SMILES
1,0.76,CNc1ccc(/C=C/c2cnc(OCCO)c([125I])c2)cc1

# Test system: Blood
# Experiment: Biodistribution in ICR mouse blood at 5 to 10 uCi, iv after 2 mins
# Assay type: ADME, organism-based
# Details: in vivo
row,Drug uptake [% ID/g],SMILES
1,4.14,CNc1ccc(/C=C/c2cnc(OCCO)c([125I])c2)cc1

# Test system: Liver
# Experiment: Biodistribution in ICR mouse liver at 5 to 10 uCi, iv after 30 mins
# Assay type: ADME, organism-based
# Details: in vivo, 0.5 h
row,Drug uptake [% ID/g],SMILES
1,12.6,CNc1ccc(/C=C/c2cnc(OCCO)c([125I])c2)cc1

# Test system: Spleen
# Experiment: Biodistribution in ICR mouse spleen at 5 to 10 uCi, iv after 30 mins
# Assay type: ADME, organism-based
# Details: in vivo, 0.5 h
row,Drug uptake [% ID/g],SMILES
1,1.34,CNc1ccc(/C=C/c2cnc(OCCO)c([125I])c2)cc1

# Test system: Lung
# Experiment: Biodistribution in ICR mouse lung at 5 to 10 uCi, iv after 30 mins
# Assay type: ADME, organism-based
# Details: in vivo, 0.5 h
row,Drug uptake [% ID/g],SMILES
1,2.67,CNc1ccc(/C=C/c2cnc(OCCO)c([125I])c2)cc1

# Test system: Lung
# Experiment: Biodistribution in ICR mouse lung at 5 to 10 uCi, iv after 2 hrs
# Assay type: ADME, organism-based
# Details: in vivo
row,Drug uptake [% ID/g],SMILES
1,1.58,CNc1ccc(/C=C/c2cnc(OCCO)c([125I])c2)cc1

# Test system: Heart
# Experiment: Biodistribution in ICR mouse heart at 5 to 10 uCi, iv after 30 mins
# Assay type: ADME, organism-based
# Details: in vivo, 0.5 h
row,Drug uptake [% ID/g],SMILES
1,1.5,CNc1ccc(/C=C/c2cnc(OCCO)c([125I])c2)cc1

# Test system: Zone of skin
# Experiment: Biodistribution in ICR mouse skin at 5 to 10 uCi, iv after 1 hr
# Assay type: ADME, organism-based
# Details: in vivo
row,Drug uptake [% ID/g],SMILES
1,1.29,CNc1ccc(/C=C/c2cnc(OCCO)c([125I])c2)cc1

# Test system: Muscle tissue
# Experiment: Biodistribution in ICR mouse muscle at 5 to 10 uCi, iv after 1 hr
# Assay type: ADME, organism-based
# Details: in vivo
row,Drug uptake [% ID/g],SMILES
1,0.42,CNc1ccc(/C=C/c2cnc(OCCO)c([125I])c2)cc1

# Test system: Kidney
# Experiment: Biodistribution in ICR mouse kidney at 5 to 10 uCi, iv after 2 mins
# Assay type: ADME, organism-based
# Details: in vivo
row,Drug uptake [% ID/g],SMILES
1,11.5,CNc1ccc(/C=C/c2cnc(OCCO)c([125I])c2)cc1

# Test system: not listed separately
# Experiment: Partition coefficient, log P at pH 7.4
# Assay type: physicochemical
# Details: octanol/water
row,logD,SMILES
1,2.2,CNc1ccc(/C=C/c2cnc(OCCO)c([125I])c2)cc1

# Test system: Thyroid gland
# Experiment: Biodistribution in ICR mouse thyroid at 5 to 10 uCi, iv after 30 mins
# Assay type: ADME, organism-based
# Details: in vivo, 0.5 h
row,Drug uptake [% ID/g],SMILES
1,17.2,CNc1ccc(/C=C/c2cnc(OCCO)c([125I])c2)cc1

# Test system: Brain
# Experiment: Biodistribution in ICR mouse brain at 5 to 10 uCi, iv after 2 mins
# Assay type: ADME, organism-based
# Details: in vivo
row,Drug uptake [% ID/g],SMILES
1,8.04,CNc1ccc(/C=C/c2cnc(OCCO)c([125I])c2)cc1

# Test system: Zone of skin
# Experiment: Biodistribution in ICR mouse skin at 5 to 10 uCi, iv after 2 hrs
# Assay type: ADME, organism-based
# Details: in vivo
row,Drug uptake [% ID/g],SMILES
1,1.43,CNc1ccc(/C=C/c2cnc(OCCO)c([125I])c2)cc1

# Test system: Muscle tissue
# Experiment: Biodistribution in ICR mouse muscle at 5 to 10 uCi, iv after 2 hrs
# Assay type: ADME, organism-based
# Details: in vivo
row,Drug uptake [% ID/g],SMILES
1,0.38,CNc1ccc(/C=C/c2cnc(OCCO)c([125I])c2)cc1

# Test system: Brain
# Experiment: Biodistribution in ICR mouse brain at 5 to 10 uCi, iv after 1 hr
# Assay type: ADME, organism-based
# Details: in vivo
row,Drug uptake [% ID/g],SMILES
1,0.26,CNc1ccc(/C=C/c2cnc(OCCO)c([125I])c2)cc1

# Test system: Thyroid gland
# Experiment: Biodistribution in ICR mouse thyroid at 5 to 10 uCi, iv after 2 mins
# Assay type: ADME, organism-based
# Details: in vivo
row,Drug uptake [% ID/g],SMILES
1,6.31,CNc1ccc(/C=C/c2cnc(OCCO)c([125I])c2)cc1

# Test system: Spleen
# Experiment: Biodistribution in ICR mouse spleen at 5 to 10 uCi, iv after 2 mins
# Assay type: ADME, organism-based
# Details: in vivo
row,Drug uptake [% ID/g],SMILES
1,4.08,CNc1ccc(/C=C/c2cnc(OCCO)c([125I])c2)cc1

# Test system: Blood
# Experiment: Biodistribution in ICR mouse blood at 5 to 10 uCi, iv after 30 mins
# Assay type: ADME, organism-based
# Details: in vivo, 0.5 h
row,Drug uptake [% ID/g],SMILES
1,3.08,CNc1ccc(/C=C/c2cnc(OCCO)c([125I])c2)cc1

# Test system: Blood
# Experiment: Biodistribution in ICR mouse blood at 5 to 10 uCi, iv after 1 hr
# Assay type: ADME, organism-based
# Details: in vivo
row,Drug uptake [% ID/g],SMILES
1,1.81,CNc1ccc(/C=C/c2cnc(OCCO)c([125I])c2)cc1

# Test system: Liver
# Experiment: Biodistribution in ICR mouse liver at 5 to 10 uCi, iv after 1 hr
# Assay type: ADME, organism-based
# Details: in vivo
row,Drug uptake [% ID/g],SMILES
1,5.62,CNc1ccc(/C=C/c2cnc(OCCO)c([125I])c2)cc1

# Test system: Zone of skin
# Experiment: Biodistribution in ICR mouse skin at 5 to 10 uCi, iv after 2 mins
# Assay type: ADME, organism-based
# Details: in vivo
row,Drug uptake [% ID/g],SMILES
1,0.95,CNc1ccc(/C=C/c2cnc(OCCO)c([125I])c2)cc1

# Test system: Zone of skin
# Experiment: Biodistribution in ICR mouse skin at 5 to 10 uCi, iv after 30 mins
# Assay type: ADME, organism-based
# Details: in vivo, 0.5 h
row,Drug uptake [% ID/g],SMILES
1,1.86,CNc1ccc(/C=C/c2cnc(OCCO)c([125I])c2)cc1

# Test system: Brain
# Experiment: Biodistribution in ICR mouse brain at 5 to 10 uCi, iv after 2 hrs
# Assay type: ADME, organism-based
# Details: in vivo
row,Drug uptake [% ID/g],SMILES
1,0.15,CNc1ccc(/C=C/c2cnc(OCCO)c([125I])c2)cc1

# Test system: Kidney
# Experiment: Biodistribution in ICR mouse kidney at 5 to 10 uCi, iv after 1 hr
# Assay type: ADME, organism-based
# Details: in vivo
row,Drug uptake [% ID/g],SMILES
1,2.16,CNc1ccc(/C=C/c2cnc(OCCO)c([125I])c2)cc1

# Test system: Muscle tissue
# Experiment: Biodistribution in ICR mouse muscle at 5 to 10 uCi, iv after 2 mins
# Assay type: ADME, organism-based
# Details: in vivo
row,Drug uptake [% ID/g],SMILES
1,1.15,CNc1ccc(/C=C/c2cnc(OCCO)c([125I])c2)cc1

# Test system: Blood
# Experiment: Biodistribution in ICR mouse blood at 5 to 10 uCi, iv after 2 hrs
# Assay type: ADME, organism-based
# Details: in vivo
row,Drug uptake [% ID/g],SMILES
1,1.96,CNc1ccc(/C=C/c2cnc(OCCO)c([125I])c2)cc1

# Test system: Brain
# Experiment: Ratio of drug distribution in brain after 2 mins to 30 mins in ICR mouse at 5 to 10 uCi, iv
# Assay type: ADME, organism-based
# Details: in vivo
row,Ratio,SMILES
1,9.13,CNc1ccc(/C=C/c2cnc(OCCO)c([125I])c2)cc1

# Test system: Kidney
# Experiment: Biodistribution in ICR mouse kidney at 5 to 10 uCi, iv after 30 mins
# Assay type: ADME, organism-based
# Details: in vivo, 0.5 h
row,Drug uptake [% ID/g],SMILES
1,3.73,CNc1ccc(/C=C/c2cnc(OCCO)c([125I])c2)cc1

# Test system: Liver
# Experiment: Biodistribution in ICR mouse liver at 5 to 10 uCi, iv after 2 hrs
# Assay type: ADME, organism-based
# Details: in vivo
row,Drug uptake [% ID/g],SMILES
1,3.41,CNc1ccc(/C=C/c2cnc(OCCO)c([125I])c2)cc1

# Test system: Muscle tissue
# Experiment: Biodistribution in ICR mouse muscle at 5 to 10 uCi, iv after 30 mins
# Assay type: ADME, organism-based
# Details: in vivo, 0.5 h
row,Drug uptake [% ID/g],SMILES
1,0.91,CNc1ccc(/C=C/c2cnc(OCCO)c([125I])c2)cc1

# Test system: Lung
# Experiment: Biodistribution in ICR mouse lung at 5 to 10 uCi, iv after 1 hr
# Assay type: ADME, organism-based
# Details: in vivo
row,Drug uptake [% ID/g],SMILES
1,1.76,CNc1ccc(/C=C/c2cnc(OCCO)c([125I])c2)cc1
